Measured values taken from publication PMC12535076, “Neurotherapeutic effects of Vutiglabridin as a Paraoxonase-2 modulator in preclinical models of Parkinson’s disease” (Molecular Neurodegeneration, 2025).

Key:
[1] = system: SH-SY5Y human neuroblastoma cells; experiment: Cell-based mitochondrial activity assays in MPP+-treated SH-SY5Y cells
Protocol: Human SH-SY5Y neuroblastoma cells (ATCC® (CRL-2266™; Manassas, VA, USA) were first cultured in Dulbecco’s Modified Eagle Medium (DMEM)/F12 supplemented with 10% fetal bovine serum (FBS), 100 U/mL penicillin, and 100 µg/mL streptomycin (complete media, CM) at 37 °C with 5% CO2. Cells (5 × 10^4 cells/well) then were cultured in 96-well plates for 24 h followed by incubation in serum-deficient media (SDM, culture media containing 0.5% FBS) for 16 h. […] The treated cells were harvested according to the purpose and analyzed.
A systemic cell-based mitochondrial function analysis system was established using SH-SY5Y cells in 96-well plates based on fluorescence detection methods as described previously. The assay system covers quantitative assays for methyl thiazyl tetrazolium-mitochondrial dehydrogenase activity (MTT), TMRE-based mitochondrial membrane potential (TMRE), ATP contents, and ROS of cells. Cells in black 96-well culture plate were incubated with 200 nM TMRE and 0.5 µM Hoechst 33,342 for 30 min at 37 °C in phenol red-free SDM, or with 1 µM CM-H2DCFDA or 5 µM MitoSOX and 0.5 µM Hoechst 33,342 for 1 h at 37 °C. Fluorescence intensities at 550 nm/580 nm for TMRE, at 510 nm/580 nm MitoSOX, or at 494 nm/522 nm for DCF-DA were normalized by Hoechst intensity at 355 nm/480 nm (Spectramax Gemini EM, Molecular Devices, Sunnyvale, CA, USA).
Endogenous OCR was measured in adherent SH-SY5Y cells using a Seahorse XF-24 Analyzer (Seahorse Bioscience, Billerica, MA, USA) following the manufacturer’s protocol with minor modifications. Briefly, OCR assays were performed using SH-SY5Y cells (5.0 × 10^3 cells/well) equilibrated in DMEM without sodium bicarbonate in XF-24 microplates. After measuring basal OCR for 3 min, oligomycin (1 µg/mL), carbonyl cyanide-p-trifluoromethoxyphenylhydrazone (FCCP) (0.3 µM), and rotenone (0.1 µM) were consecutively added into each well to reach their final working concentrations. The OCR was calculated from 3-min measurement cycles and normalized to cell number.

MAO-B = biological target: T1, MAO-B (Homo sapiens, UniProt P27338); experiment: ROS Glo based MAO-B enzyme activity assay; format: biochemical; details: read-out: IC50, MAO-B assay, ROS-Glo method
T1 sequence (P27338 1-520): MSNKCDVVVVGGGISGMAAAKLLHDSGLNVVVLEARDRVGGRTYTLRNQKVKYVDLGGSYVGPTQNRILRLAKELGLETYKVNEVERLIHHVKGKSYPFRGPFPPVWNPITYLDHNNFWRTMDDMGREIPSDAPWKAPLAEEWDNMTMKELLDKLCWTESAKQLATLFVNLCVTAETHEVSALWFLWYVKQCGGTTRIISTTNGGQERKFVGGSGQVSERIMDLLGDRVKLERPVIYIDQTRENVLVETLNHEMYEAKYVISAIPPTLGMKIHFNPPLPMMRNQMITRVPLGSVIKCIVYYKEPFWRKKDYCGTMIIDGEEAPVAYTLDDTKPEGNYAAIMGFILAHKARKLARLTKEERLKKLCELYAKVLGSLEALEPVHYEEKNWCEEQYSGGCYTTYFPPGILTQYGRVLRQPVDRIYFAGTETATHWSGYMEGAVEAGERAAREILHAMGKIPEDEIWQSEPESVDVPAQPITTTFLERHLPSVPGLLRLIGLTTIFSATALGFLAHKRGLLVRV
Protocol: An enzyme solution was prepared by diluting 10 µL of a 2.5 mg/mL MAO-A or MAO-B stock in 10 mL of 50 mM sodium phosphate buffer (pH 7.4). A substrate solution was prepared by diluting 200 µL of a 100 mM benzylamine (or tyramine) stock in 10 mL phosphate buffer to achieve a final concentration of 1 mM. For each 96-well plate experiment, 12.5 µL of a 1× H2O2 probe solution was added to 1 mL of the probe dilution buffer from the ROS Glo™ kit. Separately, 40 µL of cysteine and enhancer were diluted into 4 mL of Luciferin solution. In each well, 49 µL of the enzyme solution was dispensed, followed by 1 µL of the test compound, and incubated for 30 min. […] Next, 10 µL of the H2O2 probe solution was added and incubated for 15 min. […] Luminescence was subsequently recorded using a microplate luminescence reader (SpectraMax i3, Molecular Devices).

MAO-A = biological target: T2, MAO-A (Homo sapiens, UniProt P21397); experiment: HRP/Amplex red based MAO-A enzyme activity assay; format: biochemical; details: read-out: IC50, MAO-A assay, HRP/AR method
T2 sequence (P21397 1-527): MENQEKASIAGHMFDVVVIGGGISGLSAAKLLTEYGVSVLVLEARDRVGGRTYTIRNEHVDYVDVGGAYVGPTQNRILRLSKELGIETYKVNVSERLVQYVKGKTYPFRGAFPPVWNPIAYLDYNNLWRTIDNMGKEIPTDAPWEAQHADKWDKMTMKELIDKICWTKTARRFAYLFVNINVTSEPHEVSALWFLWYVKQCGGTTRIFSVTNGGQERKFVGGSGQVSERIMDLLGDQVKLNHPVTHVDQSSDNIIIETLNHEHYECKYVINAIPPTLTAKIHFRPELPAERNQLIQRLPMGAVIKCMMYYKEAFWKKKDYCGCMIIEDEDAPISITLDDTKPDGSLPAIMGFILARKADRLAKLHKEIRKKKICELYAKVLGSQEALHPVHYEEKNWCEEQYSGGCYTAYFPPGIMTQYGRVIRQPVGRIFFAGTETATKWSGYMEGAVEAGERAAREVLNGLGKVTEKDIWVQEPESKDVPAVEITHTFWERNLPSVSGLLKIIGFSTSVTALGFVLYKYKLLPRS
Protocol: MAO-A or MAO-B enzyme solutions were prepared by diluting 10 µL of a 2.5 mg/mL MAO-A or MAO-B stock into 10 mL of 50 mM sodium phosphate buffer (pH 7.4). A substrate assay mixture was then prepared by combining benzylamine (for MAO-B) or tyramine (for MAO-A) from a 100 mM stock (200 µL in 10 mL phosphate buffer, final concentration 1 mM) with 100 µL of a 20 mM AR reagent stock (final concentration 0.1 mM) and 100 µL of a 200 U/mL HRP stock (final concentration 1 U/mL) in 10 mL phosphate buffer. […] Next, 50 µL of the substrate assay mixture was added, and the reaction was carried out at 37 °C for 60 min. The production of resorufin was quantified by fluorescence measurement (excitation at 540 nm and emission at 580 nm).

Compound: CCOc1ccc(C2COc3c(ccc4c3CCC(C)(C)O4)C2)c(O)c1 (stereo not drawn) [Vuti, Vutiglabridin]
- MPP+-induced reduction in OCR (basal respiration, ATP turnover rate, maximum respiratory capacity) ([1]; 1 mM MPP+ 20 h, then Vuti 1~100 nM 24 h, Seahorse XF-24): dose-dependently and significantly rescued
- MPP+-induced mitochondrial damage (NADH dehydrogenase complex 1 activity, ATP content, DCF-DA ROS, MitoSOX superoxide) ([1]; 1 mM MPP+ 24 h, then Vuti 0~1 µM 24 h): significantly reversed
- ATP production rates through glycolysis (GlycoATP) and mitochondria (mitoATP) ([1]; 1 mM MPP+, post-treatment with Vuti): normalized
- concentration at which significant restoration of MPP+-induced damage was observed ([1]; SH-SY5Y, 1 mM MPP+): 1 nM
- IC50 (MAO-B): 58.3 µM
- IC50 (MAO-A): 288 µM
